Measurements as given in patent US20200157088A1, “BENZENE FUSED HETEROCYCLIC COMPOUND AND USE THEREOF” (TAIWANJ PHARMACEUTICALS CO., LTD., priority 2017, published 2020).

biological target: T1, autotaxin (Homo sapiens, UniProt Q13822); test: Autotaxin inhibitor screening assay (choline release from LPC); format: biochemical; settings: not given
T1 construct: purchased Cayman 10803
Experimental: Autotaxin activity was measured by choline release from LPC in presence or absence of compound.
Twenty (20) ng autotaxin (10803, Cayman, MI, USA) was incubated with 100 μM 14:0 LPC (855575P, Avanti, AL, USA) in a final volume of 100 μL buffer containing 50 mM Tris pH 8.0, 0.01% Triton X-100, 50 mM CaCl2, 1 unit/ml choline oxidase, 2 unit/ml HRP, 2 mM homovanilic acid (HVA). The relative amount of released choline was measured by HVA fluorescence in a 96-well plate. Fluorescent intensity was determined at λex/λem=320/450 nm every 60 seconds for 90 minutes with a SpectraMax i3 (Molecular Devices, CA, USA). Data analysis was performed using GraphPad Prism (GraphPad, La Jolla Calif., USA).
Inhibition %=[1−SlopeTA−SlopeBlank)/(Slopevehicle−SlopeBlank)]×100%

Row | SMILES | inhibition at 1 µM [%]
1 | Cc1cc(Cl)cc(COC(=O)N(C)C2CCc3ccc(C4=CCN(C(=O)CN5C(=O)CSC5=S)CC4)cc32)c1 (stereo not drawn) [Compound 92] | > 80
2 | CN(C(=O)OCc1cc(F)cc(Cl)c1)C1CCc2ccc(C3=CCN(C(=O)CN4C(=O)CSC4=S)CC3)cc21 (stereo not drawn) [Compound 97] | > 80
3 | CCC1Oc2ccc(C3=CCN(C(=O)CN4CCOCC4)CC3)cc2C1N(C)C(=O)OCc1cc(Cl)cc(Cl)c1 (stereo not drawn) [Compound 120] | < 50

same assay, conditions: inhibition of autotaxin enzyme activity at 1 μM compound; 100 μM 14:0 LPC; read-out: Inhibition

Row | SMILES | inhibition at 1 µM [%]
4 | CN(CCOc1ccc(F)cc1F)C1CCc2ccc(N3CCN(CC(=O)N4CC(O)C4)CC3)cc21 (stereo not drawn) [Compound 73] | < 50
5 | CN(CCOc1ccc(F)cc1F)C1CCCc2ccc(N3CCN(CC(=O)N4CC(O)C4)CC3)cc21 (stereo not drawn) [Compound 74] | < 50
6 | N#Cc1cn(Cc2coc3ccc(C4=CCN(CC(=O)N5CC(O)C5)CC4)cc23)nc1-c1ccc(Cl)cc1 [Compound 82, 3-(4-chlorophenyl)-1-((5-(1-(2-(3-hydroxyazetidin-1-yl)-2-oxoethyl)-1,2,3,6-tetrahydropyridin-4-yl)benzofuran-3-yl)methyl)-1H-pyrazole-4-carbonitrile] | < 50
7 | Cc1oc2ccc(C3=CCN(C(=O)CN4C(=O)CSC4=S)CC3)cc2c1N(C)C(=O)OCc1cc(C(F)(F)F)cc(C(F)(F)F)c1 [Compound 102] | > 80
8 | Cc1oc2ccc(C3=CCN(C(=O)CS(C)(=O)=O)CC3)cc2c1N(C)C(=O)OCc1cc(C(F)(F)F)cc(C(F)(F)F)c1 [Compound 103] | 50 to 80
9 | CCN(C(=O)OCc1cc(C(F)(F)F)cc(C(F)(F)F)c1)c1c(C)oc2ccc(C3=CCN(C(=O)CN4C(=O)CSC4=S)CC3)cc12 [Compound 105] | > 80
10 | Cc1c(N(C)C(=O)OCc2cc(C(F)(F)F)cc(C(F)(F)F)c2)c2cc(C3=CCN(C(=O)CN4C(=O)CSC4=S)CC3)ccc2n1C [Compound 109] | 50 to 80
11 | COc1cc(C2=CCN(C(=O)CN3C(=O)CSC3=S)CC2)cc2c(N(C)C(=O)OCc3cc(C(F)(F)F)cc(C(F)(F)F)c3)coc12 [Compound 112] | > 80
12 | CCC1Cc2ccc(C3=CCN(C(=O)CS(C)(=O)=O)CC3)cc2C1N(C)C(=O)OCc1cc(Cl)cc(Cl)c1 (stereo not drawn) [Compound 121] | < 50
13 | O=C(Nc1noc2ccc(C3=CCN(C(=O)CN4C(=O)CSC4=S)CC3)cc12)OCc1cc(C(F)(F)F)cc(C(F)(F)F)c1 [Compound 131] | 50 to 80
14 | CN(C(=O)OCc1cc(C(F)(F)F)cc(C(F)(F)F)c1)c1noc2ccc(C3=CCN(C(=O)CN4C(=O)CSC4=S)CC3)cc12 [Compound 132] | 50 to 80
15 | CCN(C(=O)OCc1cc(C(F)(F)F)cc(C(F)(F)F)c1)c1noc2ccc(C3=CCN(C(=O)CN4C(=O)CSC4=S)CC3)cc12 [Compound 133] | 50 to 80

Second part, the compound after the results:

Row | inhibition at 1 µM [%] | SMILES
16 | > 80 | CN(C(=O)OCc1cc(Cl)cc(Cl)c1)c1coc2ccc(C3=CCN(C(=O)CN4C(=O)CSC4=S)CC3)cc12 [Compound 69, 3,5-dichlorobenzyl methyl(5-(1-(2-(4-oxo-2-thioxothiazolidin-3-yl)acetyl)-1,2,3,6-tetrahydropyridin-4-yl)benzofuran-3-yl)carbamate]
17 | > 80 | CN(C(=O)OCc1cc(Cl)cc(Cl)c1)c1csc2ccc(C3=CCN(C(=O)CN4C(=O)CSC4=S)CC3)cc12 [Compound 85]
18 | > 80 | CN(C(=O)OCc1cc(Cl)cc(C(F)(F)F)c1)C1CCc2ccc(C3=CCN(C(=O)CN4C(=O)CSC4=S)CC3)cc21 (stereo not drawn) [Compound 93]
19 | > 80 | Cc1cc(COC(=O)N(C)C2CCc3ccc(C4=CCN(C(=O)CN5C(=O)CSC5=S)CC4)cc32)cc(C(F)(F)F)c1 (stereo not drawn) [Compound 94]
20 | > 80 | CN(C(=O)OCc1cc(C(F)(F)F)cc(C(F)(F)F)c1)C1CCc2ccc(C3=CCN(C(=O)CN4C(=O)CSC4=S)CC3)cc21 (stereo not drawn) [Compound 95]
21 | > 80 | CN(C(=O)OCc1cc(Cl)ccc1Cl)C1CCc2ccc(C3=CCN(C(=O)CN4C(=O)CSC4=S)CC3)cc21 (stereo not drawn) [Compound 96]
22 | > 80 | CC1Cc2ccc(C3=CCN(C(=O)CN4C(=O)CSC4=S)CC3)cc2C1N(C)C(=O)OCc1cc(Cl)cc(Cl)c1 (stereo not drawn) [Compound 117]
23 | 50 to 80 | CCC1Cc2ccc(C3=CCN(C(=O)CN4C(=O)CSC4=S)CC3)cc2C1N(C)C(=O)OCc1cc(Cl)cc(Cl)c1 (stereo not drawn) [Compound 119]
24 | 50 to 80 | O=C(Nc1noc2ccc(C3=CCN(C(=O)CN4C(=O)CSC4=S)CC3)cc12)OCc1cc(Cl)cc(Cl)c1 [Compound 127]
25 | 50 to 80 | CN(C(=O)OCc1cc(Cl)cc(Cl)c1)c1noc2ccc(C3=CCN(C(=O)CN4C(=O)CSC4=S)CC3)cc12 [Compound 128]
26 | 50 to 80 | CCN(C(=O)OCc1cc(Cl)cc(Cl)c1)c1noc2ccc(C3=CCN(C(=O)CN4C(=O)CSC4=S)CC3)cc12 [Compound 129]
27 | > 80 | CCN(C(=O)OCc1cc(Cl)cc(Cl)c1)C1CCc2ccc(C3=CCN(C(=O)CN4C(=O)CSC4=S)CC3)cc21 (stereo not drawn) [Compound 130]
28 | 50 to 80 | CN(C(=O)CCc1cc(Cl)cc(Cl)c1)C1CCc2ccc(C3=CCN(C(=O)CN4C(=O)CSC4=S)CC3)cc21 (stereo not drawn) [Compound 137]
29 | 50 to 80 | CN(C(=O)CCc1cc(Cl)cc(Cl)c1)C1CCc2ccc(C3=CCN(C(=O)CCS(C)(=O)=O)CC3)cc21 (stereo not drawn) [Compound 138]
30 | < 50 | CN(C(=O)OCc1cc(Cl)cc(Cl)c1)C1CCc2ccc(C3=CCN(C(=O)N4CCN(S(C)(=O)=O)C4=O)CC3)cc21 (stereo not drawn) [Compound 139]
